Key:
Test in all cases: relative viability (nuclei count vs DMSO), 5 days (fraction); higher = more cells survive
Sulindac + Pictilisib = compound: CC1=C(CC(=O)O)c2cc(F)ccc2/C1=C\c1ccc([S+](C)[O-])cc1 [Sulindac] + CS(=O)(=O)N1CCN(Cc2cc3nc(-c4cccc5[nH]ncc45)nc(N4CCOCC4)c3s2)CC1 [Pictilisib] (partner 1 µM)
Procedure, shortened: (§1)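 Cells from lung cancer lines were seeded into 1536-well plates and, one day later, dosed by pin tool. Treatments were either a single drug or a fixed dose of an anchor drug with five library-drug doses (not always all listed) in √10 steps. After 5 days, nuclei were stained in a one-step fixation (final 0.05% Triton X-100, 1% formaldehyde, 1 ug/ml Hoechst) and counted on 4× images, and relative viability is the treated-to-vehicle nuclei ratio, as the median of duplicate plates.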

[1] = compound: O=c1[nH]cc(F)c(=O)[nH]1 [5-Fluorouracil] + CC(=O)Nc1cccc(-n2c(=O)n(C3CC3)c(=O)c3c(Nc4ccc(I)cc4F)n(C)c(=O)c(C)c32)c1 [Trametinib] (partner 0.02 µM)
Procedure, shortened: as §1

[2] = compound: O=c1[nH]cc(F)c(=O)[nH]1 [5-Fluorouracil] + CC(=O)c1c(C)c2cnc(Nc3ccc(N4CCNCC4)cn3)nc2n(C2CCCC2)c1=O [Palbociclib] (partner 0.5 µM)
Procedure, shortened: as §1

5-Fluorouracil + AZD7762 = compound: O=c1[nH]cc(F)c(=O)[nH]1 [5-Fluorouracil] + NC(=O)Nc1cc(-c2cccc(F)c2)sc1C(=O)N[C@H]1CCCNC1 [AZD7762] (partner 0.2 µM)
Procedure, shortened: as §1

Cell Line	relative viability (Sulindac + Pictilisib; first compound 0.08 µM)	relative viability (Sulindac + Pictilisib; first compound 0.253 µM)	relative viability (Sulindac + Pictilisib; first compound 2.53 µM)	relative viability (Sulindac + Pictilisib; first compound 8 µM)	relative viability ([1]; first compound 0.02 µM)	relative viability ([1]; first compound 0.2 µM)	relative viability ([1]; first compound 0.6325 µM)	relative viability ([1]; first compound 2 µM)	relative viability ([2]; first compound 0.02 µM)	relative viability ([2]; first compound 0.2 µM)	relative viability ([2]; first compound 0.6325 µM)	relative viability ([2]; first compound 2 µM)	relative viability (5-Fluorouracil + AZD7762; first compound 0.02 µM)	relative viability (5-Fluorouracil + AZD7762; first compound 0.2 µM)	relative viability (5-Fluorouracil + AZD7762; first compound 0.6325 µM)	relative viability (5-Fluorouracil + AZD7762; first compound 2 µM)	relative viability (Sulindac + Pictilisib; first compound 0.8 µM)
NCI-H1792	0.286	0.294	0.231	0.313	0.367	0.278	0.172	0.167	0.688	0.696	0.352	0.29	0.641	0.303	0.213	0.218	
NCI-H1793	0.275	0.329	0.351	0.344	0.398	0.49	0.373	0.38	0.285	0.299	0.274	0.243	0.344	0.488	0.409	0.332	0.271
NCI-H1915	0.975	0.927	0.887	1.05	0.28	0.325	0.253	0.283	0.485	0.522	0.498	0.383	0.409	0.683	0.643	0.577	0.761
NCI-H1944	0.345	0.347	0.342	0.388	0.412	0.333	0.244	0.195	0.306	0.319	0.252	0.214	0.475	0.199	0.106	0.0961	0.325
NCI-H1975	0.301	0.28	0.282	0.286	0.307	0.548	0.313	0.238	0.671	0.768	0.355	0.189		0.596	0.32	0.28	
NCI-H1993	0.827	0.787	0.732	0.927	0.379	0.524	0.486	0.487	0.681	1.19	0.469	0.494	0.737	0.622	0.542	0.505	0.769
NCI-H2085	0.459	0.415	0.377	0.447	0.412	0.607	0.563	0.563	0.434	0.504	0.473	0.5	0.938	0.935	0.837	0.644	0.433
NCI-H2087	0.951	0.783	0.916	0.984	0.216	0.157	0.167	0.216	0.234	0.243	0.164	0.179	1.42	1.01	0.606	0.408	0.622
NCI-H2126	0.46	0.498	0.497	0.479	0.579	0.305	0.27	0.257	0.348	0.29	0.299	0.274	0.995	0.249	0.209	0.256	0.462
NCI-H2170	0.274	0.288	0.294	0.322	0.976	0.78	0.478	0.312	0.407	0.368	0.268	0.249	0.793	0.718	0.317	0.236	0.291
NCI-H2347	0.298	0.637	0.6	0.509	0.281	0.256	0.293	0.166	0.455	0.381	0.395	0.326	0.63	0.45	0.339	0.343	0.503
NCI-H2405	0.548	0.459	0.407	0.603	0.629	0.692	0.579	0.6	0.541	0.579	0.529	0.48	0.813	0.86	0.684	0.494	0.438
NCI-H3122	0.675	0.602	0.627	0.621	0.232	0.296	0.187	0.176	0.216	0.174	0.175	0.174	0.959	0.856	0.197	0.143	0.592
PC-3 [JPC-3]	0.886	0.81	0.753	0.857	0.784	0.823	0.782	0.661	0.562	0.582	0.576	0.509	0.815	0.855	0.908	0.816	0.55
PC-14	0.83	0.65	0.73	0.757	0.837	0.734	0.81	0.456	0.585	0.504	0.435	0.311	0.361	0.431	0.389	0.278	
RERF-LC-KJ	0.57	0.626	0.473	0.579	0.949	0.811	0.838	0.7	1.06	0.991	0.891	0.677	0.973		0.948	0.893	
